± gives the expanded uncertainty stated by the source.
Tests used:
[1] = for surface tension liquid-gas: Maximal bubble pressure; for mass density: 101.33 kPa, Liquid, Vibrating tube method
[2] = refractive index (Na D-line) (dimensionless); conditions: 101.33 kPa, Liquid, Standard Abbe refractometry

CCOCCn1cc[n+](C)c1.[Br-] [1-(2-ethoxyethyl)-3-methylimidazolium bromide]
surface tension liquid-gas ([1]; 288.15 K): 50.9 ± 0.5 mN/m
mass density ([1]; 288.15 K): 1360.32 ± 2.4 kg/m3
surface tension liquid-gas ([1]; 293.15 K): 50.5 ± 0.5 mN/m
mass density ([1]; 293.15 K): 1356.56 ± 2.4 kg/m3
surface tension liquid-gas ([1]; 298.15 K): 50.2 ± 0.5 mN/m
mass density ([1]; 298.15 K): 1352.79 ± 2.4 kg/m3
surface tension liquid-gas ([1]; 303.15 K): 49.8 ± 0.5 mN/m
mass density ([1]; 303.15 K): 1349.05 ± 2.4 kg/m3
surface tension liquid-gas ([1]; 308.15 K): 49.5 ± 0.5 mN/m
mass density ([1]; 308.15 K): 1345.33 ± 2.4 kg/m3
surface tension liquid-gas ([1]; 313.15 K): 49.2 ± 0.5 mN/m
mass density ([1]; 313.15 K): 1341.63 ± 2.4 kg/m3
surface tension liquid-gas ([1]; 318.15 K): 48.9 ± 0.5 mN/m
mass density ([1]; 318.15 K): 1337.99 ± 2.4 kg/m3
surface tension liquid-gas ([1]; 323.15 K): 48.6 ± 0.5 mN/m
mass density ([1]; 323.15 K): 1334.35 ± 2.4 kg/m3
surface tension liquid-gas ([1]; 328.15 K): 48.3 ± 0.5 mN/m
mass density ([1]; 328.15 K): 1330.24 ± 2.4 kg/m3
refractive index ([2]; 288.15 K): 1.5473 ± 0.0031
refractive index ([2]; 293.15 K): 1.5458 ± 0.0031
refractive index ([2]; 298.15 K): 1.5441 ± 0.0031
refractive index ([2]; 303.15 K): 1.5426 ± 0.0031
refractive index ([2]; 308.15 K): 1.5409 ± 0.0031
refractive index ([2]; 313.15 K): 1.5391 ± 0.0031
refractive index ([2]; 318.15 K): 1.5376 ± 0.0031
refractive index ([2]; 323.15 K): 1.5357 ± 0.0031
refractive index ([2]; 328.15 K): 1.5341 ± 0.0031

CCOCCn1cc[n+](C)c1.[Cl-] [1-(2-ethoxyethyl)-3-methylimidazolium chloride]
surface tension liquid-gas ([1]; 288.15 K): 47.8 ± 0.5 mN/m
mass density ([1]; 288.15 K): 1143.13 ± 2.3 kg/m3
surface tension liquid-gas ([1]; 293.15 K): 47.3 ± 0.5 mN/m
mass density ([1]; 293.15 K): 1139.98 ± 2.3 kg/m3
surface tension liquid-gas ([1]; 298.15 K): 46.9 ± 0.5 mN/m
mass density ([1]; 298.15 K): 1136.83 ± 2.3 kg/m3
surface tension liquid-gas ([1]; 303.15 K): 46.5 ± 0.5 mN/m
mass density ([1]; 303.15 K): 1133.69 ± 2.3 kg/m3
surface tension liquid-gas ([1]; 308.15 K): 46 ± 0.5 mN/m
mass density ([1]; 308.15 K): 1130.57 ± 2.3 kg/m3
surface tension liquid-gas ([1]; 313.15 K): 45.6 ± 0.5 mN/m
mass density ([1]; 313.15 K): 1127.45 ± 2.3 kg/m3
surface tension liquid-gas ([1]; 318.15 K): 45.2 ± 0.5 mN/m
mass density ([1]; 318.15 K): 1124.37 ± 2.3 kg/m3
surface tension liquid-gas ([1]; 323.15 K): 44.8 ± 0.5 mN/m
mass density ([1]; 323.15 K): 1121.28 ± 2.3 kg/m3
surface tension liquid-gas ([1]; 328.15 K): 44.3 ± 0.5 mN/m
mass density ([1]; 328.15 K): 1118.21 ± 2.3 kg/m3
refractive index ([2]; 288.15 K): 1.5269 ± 0.0031
refractive index ([2]; 293.15 K): 1.5255 ± 0.0031
refractive index ([2]; 298.15 K): 1.524 ± 0.0031
refractive index ([2]; 303.15 K): 1.5225 ± 0.0031
refractive index ([2]; 308.15 K): 1.5206 ± 0.0031
refractive index ([2]; 313.15 K): 1.5184 ± 0.0031
refractive index ([2]; 318.15 K): 1.5159 ± 0.0031
refractive index ([2]; 323.15 K): 1.5142 ± 0.0031
refractive index ([2]; 328.15 K): 1.5119 ± 0.0031

COCCn1cc[n+](C)c1.[Cl-] [1-(2-methoxyethyl)-3-methylimidazolium chloride]
surface tension liquid-gas ([1]; 288.15 K): 49.6 ± 0.5 mN/m
mass density ([1]; 288.15 K): 1168.6 ± 2.3 kg/m3
surface tension liquid-gas ([1]; 293.15 K): 49.2 ± 0.5 mN/m
mass density ([1]; 293.15 K): 1165.46 ± 2.3 kg/m3
surface tension liquid-gas ([1]; 298.15 K): 48.7 ± 0.5 mN/m
mass density ([1]; 298.15 K): 1162.31 ± 2.3 kg/m3
surface tension liquid-gas ([1]; 303.15 K): 48.4 ± 0.5 mN/m
mass density ([1]; 303.15 K): 1159.17 ± 2.3 kg/m3
surface tension liquid-gas ([1]; 308.15 K): 48 ± 0.5 mN/m
mass density ([1]; 308.15 K): 1156.04 ± 2.3 kg/m3
surface tension liquid-gas ([1]; 313.15 K): 47.6 ± 0.5 mN/m
mass density ([1]; 313.15 K): 1152.91 ± 2.3 kg/m3
surface tension liquid-gas ([1]; 318.15 K): 47.1 ± 0.5 mN/m
mass density ([1]; 318.15 K): 1149.78 ± 2.3 kg/m3
surface tension liquid-gas ([1]; 323.15 K): 46.7 ± 0.5 mN/m
mass density ([1]; 323.15 K): 1146.63 ± 2.3 kg/m3
surface tension liquid-gas ([1]; 328.15 K): 46.2 ± 0.5 mN/m
mass density ([1]; 328.15 K): 1143.27 ± 2.3 kg/m3
refractive index ([2]; 288.15 K): 1.5201 ± 0.0031
refractive index ([2]; 293.15 K): 1.5185 ± 0.0031
refractive index ([2]; 298.15 K): 1.516 ± 0.0031
refractive index ([2]; 303.15 K): 1.5142 ± 0.0031
refractive index ([2]; 308.15 K): 1.5121 ± 0.0031
refractive index ([2]; 313.15 K): 1.5103 ± 0.0031
refractive index ([2]; 318.15 K): 1.5083 ± 0.0031
refractive index ([2]; 323.15 K): 1.5069 ± 0.0031
refractive index ([2]; 328.15 K): 1.5046 ± 0.0031

— the NIST ThermoML archive (doi:10.1016/j.jct.2019.06.027)
